Results taken from patent US5177204A, “Derivatives of 4-(2,4-difluorbiphenylyl)-2-methyl-4-oxobutanoic acid” (Vyzkumng, USTAV pro farmacii a biochemii, Statni podnik, priority 1990, dated 1993).
Counter-ions that a name gives are not always drawn.

Key:
male mice = assay: Acute toxicity, mortality after a single dose (oral or intravenous); format: in vivo; details: 500 mg/kg, 10080 min; for % mortality: Table I, single oral dose of 500 mg/kg, day 7 after application
Protocol: (§1) ^a Acute oral toxicity of each substance was evaluated after a single
(§2) dose of 500 mg/kg in male mice. The mortality in % is for day 7 after
(§3) ^a Acute toxicity was evaluated after a single dose of substance 1764
(§4) in male mice, namely orally as an aqueous solution, and intravenously in
(§5) physiological saline solution. Mortality was followed up in groups of 10
(§6) animals for 7 days upon oral application and for 3 days upon intravenous

[1] = Suppression of carragenine oedema (CE), anti-inflammatory effect; format: in vivo; details: for CE inhibition %: Table I, oral suspension in 0.5% methylcellulose, dose equimolar to flobufen 20 mg/kg, 1 hour upon application; for CE suppression %: Table II
Protocol: (§7) ^b Antiinflammatory and analgesic activity was evaluated in compariso
(§8) with flobufen in equimolar doses, while flobufen was administered in a
(§9) dose of 20 mg/kg in the evaluation of antiinflammatory activity and in a
(§10) dose of 100 mg/kg in the evaluation of analgesic activity; the substances
(§11) were administered orally as a suspension in a 0.5% solution of
(§12) methylcellulose and the oedema was measured 1 hour upon application;
^c Suppression of the carraganine oedema was assessed according to
Winter J.: Proc. Soc. exptl. Biol. Med., 111, 544 (1962);
(§13) ^b for oral and intramuscular application an aqueous solution of
(§14) substance 17640 was used in said dose;
(§15) ^c the standard, i.e. 4(2,4-difluorobiphenylyl)-2-methyl-4-oxobutanic
(§16) acid was administered as a suspension in a 0.5% methylcellulose solution.

[2] = Freund adjuvant test, inhibition of adjuvant oedema (FA), anti-inflammatory effect; format: in vivo; details: for FA inhibition %: Table I, oral suspension in 0.5% methylcellulose, dose equimolar to flobufen 20 mg/kg; for FA suppression %: Table II, oral
Protocol: as §7, §8, §9, §10, §11, §12
^d Antiinflammatory effect in the Freundadjuvant test was assessed
according to Horakova Z., Grimova J.: Cs. Fysiol. 17, 137 (1968);
as §13, §14, §15, §16

[3] = Analgesic activity, intraperitoneal irritation with 0.7% acid; format: in vivo, male mice; details: for Pain inhibition %: Table I, oral suspension in 0.5% methylcellulose, dose equimolar to flobufen 100 mg/kg, male mice; for Pain suppression %: Table II
Protocol: as §7, §8, §9, §10, §11
^e Analgesic activity was evaluated in the test of intraperitoneal
irritation with 0.7% acid in male mice according to Witkin L. et al.: J.
as §13, §14, §15, §16

[4] = Acute toxicity, mortality after a single dose (oral or intravenous); format: in vivo; details: mouse, male mice; for mortality at 168 h: in vivo, po, 500 mg/kg, Table I, single oral dose of 500 mg/kg, day 7 after application
Protocol: as §1, §2, §3, §4, §5, §6

In the case of `CC(CC(=O)c1ccc(-c2ccc(F)cc2F)cc1)C(=O)O` (stereo not drawn) [VUFB 17629, Cyclohexylammonium Salt of 4-/2,4-Difluorobiphenylyl/-2-methyl-4-oxobutan Acid], the “% mortality” value (male mice) is reported as 0%, the CE inhibition % [1] is reported as 47% and the FA inhibition % [2] is reported as 53%. For the same molecule, the Pain inhibition % [3] was 58%.
Molecule `CCOC(=O)C(C)CC(=O)c1ccc(-c2ccc(F)cc2F)cc1` (stereo not drawn) [VUFB 18391] has a mortality at 168 h [4] of 0%, a CE inhibition % [1] of 49% and an FA inhibition % [2] of 55%. It also gave a Pain inhibition % [3] of 38%.
Work on `CCCCNC(=O)C(C)CC(=O)c1ccc(-c2ccc(F)cc2F)cc1` (stereo not drawn) [VUFB 18398, n-Butylamide of 4-/2,4-Difluorobiphenylyl/-2-methyl-4-oxobutan Acid] yielded a mortality at 168 h [4] of 0%, a CE inhibition % [1] of 33% and an FA inhibition % [2] of 44%. It also gave a Pain inhibition % [3] of 33%.
In the case of `CC(CC(=O)c1ccc(-c2ccc(F)cc2F)cc1)C(=O)O` (stereo not drawn) [Flobufen, 4(2,4-difluorobiphenylyl)-2-methyl-4-oxobutanic acid, reference compound], the “% mortality” value (male mice) is reported as 50%, the “Acute toxicity, % mortality” value (male mice; Table II, oral, dose 500, aqueous solution (flobufen: suspension in 0.5% methylcellulose), 7 days) is reported as 50% and the CE inhibition % [1] is reported as 46%. For the same molecule, the CE suppression % ([1]; oral, dose 20, suspension in 0.5% methylcellulose) was 46%, the FA inhibition % [2] was 65% and the FA suppression % ([2]; dose 20, suspension in 0.5% methylcellulose) was 65%. The Pain inhibition % [3] was 79% and the Pain suppression % ([3]; oral, dose 100, suspension in 0.5% methylcellulose) was 79%.
With `CC(CC(=O)c1ccc(-c2ccc(F)cc2F)cc1)C(=O)O` (stereo not drawn) [VUFB 18405, Potassium Salt of 4-/2,4-Difluorobiphenylyl/-2-methyl-4-oxobutan Acid] the “% mortality” value (male mice) was 20%, the CE inhibition % [1] was 39% and the FA inhibition % [2] was 50%. The Pain inhibition % [3] was 47%.
Work on `CCOC(=O)CNC(=O)C(C)CC(=O)c1ccc(-c2ccc(F)cc2F)cc1` (stereo not drawn) [VUFB 18392] yielded a mortality at 168 h [4] of 0%, a CE inhibition % [1] of 40% and an FA inhibition % [2] of 51%. It also gave a Pain inhibition % [3] of 41%.
In the case of `CC(CC(=O)c1ccc(-c2ccc(F)cc2F)cc1)C(=O)O` (stereo not drawn) [VUFB 17640], the mortality at 72 h ([4]; physiological saline, iv, 100 mg/kg, Table II, parenteral (intravenous), dose 100, physiological saline, 3 days) is reported as 0%, the CE suppression % ([1]; oral, dose 30, aqueous solution) is reported as 46% and the CE suppression % ([1]; parenteral (intramuscular), dose 1, aqueous solution) is reported as 21%. The CE suppression % ([1]; parenteral (intramuscular), dose 10, aqueous solution) was 40%, the FA suppression % ([2]; dose 30, aqueous solution) was 58% and the Pain suppression % ([3]; oral, dose 150, aqueous solution) was 77%. For the same molecule, the Pain suppression % ([3]; parenteral (intramuscular), dose 80, aqueous solution) was 48%.
In the case of `CC(CC(=O)c1ccc(-c2ccc(F)cc2F)cc1)C(=O)O` (stereo not drawn) [VUFB 18404], the “% mortality” value (male mice) is reported as 30%, the CE inhibition % [1] is reported as 44% and the FA inhibition % [2] is reported as 51%. The Pain inhibition % [3] was 35%.
